What was measured:
Type in all cases: biochemical
JAK3 = biological target: T1, JAK3 (Homo sapiens, UniProt P52333); test: Inhibition of a panel of kinases, in vitro HotSpot kinase assay: JAK3; details: D-compounds panel data; 1 μM ATP; read-out: IC50 JAK3
T1 sequence (P52333 1-1124): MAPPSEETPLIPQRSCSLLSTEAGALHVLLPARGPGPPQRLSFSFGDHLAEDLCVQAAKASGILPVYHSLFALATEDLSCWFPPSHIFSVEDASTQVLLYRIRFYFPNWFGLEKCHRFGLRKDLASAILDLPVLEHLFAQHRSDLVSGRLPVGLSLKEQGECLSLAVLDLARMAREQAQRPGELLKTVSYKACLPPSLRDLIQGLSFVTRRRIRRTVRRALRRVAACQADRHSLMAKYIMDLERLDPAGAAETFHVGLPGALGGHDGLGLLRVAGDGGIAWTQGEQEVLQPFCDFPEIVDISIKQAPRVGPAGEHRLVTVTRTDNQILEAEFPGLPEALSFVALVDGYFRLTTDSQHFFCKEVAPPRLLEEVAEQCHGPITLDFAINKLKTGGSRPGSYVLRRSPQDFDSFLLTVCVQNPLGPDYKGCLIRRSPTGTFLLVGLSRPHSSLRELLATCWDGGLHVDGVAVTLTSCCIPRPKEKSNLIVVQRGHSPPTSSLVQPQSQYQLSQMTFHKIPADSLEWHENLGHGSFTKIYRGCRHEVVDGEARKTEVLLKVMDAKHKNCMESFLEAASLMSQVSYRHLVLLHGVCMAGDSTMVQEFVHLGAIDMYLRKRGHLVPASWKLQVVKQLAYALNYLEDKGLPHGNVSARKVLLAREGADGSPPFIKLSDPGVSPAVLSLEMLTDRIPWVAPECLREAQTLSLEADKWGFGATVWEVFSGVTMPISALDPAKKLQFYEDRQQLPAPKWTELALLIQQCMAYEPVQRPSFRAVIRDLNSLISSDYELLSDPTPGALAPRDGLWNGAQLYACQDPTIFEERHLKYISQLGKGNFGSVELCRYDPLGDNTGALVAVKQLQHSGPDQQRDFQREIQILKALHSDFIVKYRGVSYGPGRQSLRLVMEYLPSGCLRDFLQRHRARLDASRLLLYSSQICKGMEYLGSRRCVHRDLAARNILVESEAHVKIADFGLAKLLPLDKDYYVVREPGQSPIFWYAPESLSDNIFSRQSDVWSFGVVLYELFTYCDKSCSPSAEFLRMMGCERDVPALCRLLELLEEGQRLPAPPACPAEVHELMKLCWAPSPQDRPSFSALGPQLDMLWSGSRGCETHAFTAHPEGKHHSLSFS

ITK = biological target: T2, ITK (Homo sapiens, UniProt Q08881); test: Inhibition of a panel of kinases, in vitro HotSpot kinase assay: ITK; details: D-compounds panel data; 1 μM ATP
T2 sequence (Q08881 1-620): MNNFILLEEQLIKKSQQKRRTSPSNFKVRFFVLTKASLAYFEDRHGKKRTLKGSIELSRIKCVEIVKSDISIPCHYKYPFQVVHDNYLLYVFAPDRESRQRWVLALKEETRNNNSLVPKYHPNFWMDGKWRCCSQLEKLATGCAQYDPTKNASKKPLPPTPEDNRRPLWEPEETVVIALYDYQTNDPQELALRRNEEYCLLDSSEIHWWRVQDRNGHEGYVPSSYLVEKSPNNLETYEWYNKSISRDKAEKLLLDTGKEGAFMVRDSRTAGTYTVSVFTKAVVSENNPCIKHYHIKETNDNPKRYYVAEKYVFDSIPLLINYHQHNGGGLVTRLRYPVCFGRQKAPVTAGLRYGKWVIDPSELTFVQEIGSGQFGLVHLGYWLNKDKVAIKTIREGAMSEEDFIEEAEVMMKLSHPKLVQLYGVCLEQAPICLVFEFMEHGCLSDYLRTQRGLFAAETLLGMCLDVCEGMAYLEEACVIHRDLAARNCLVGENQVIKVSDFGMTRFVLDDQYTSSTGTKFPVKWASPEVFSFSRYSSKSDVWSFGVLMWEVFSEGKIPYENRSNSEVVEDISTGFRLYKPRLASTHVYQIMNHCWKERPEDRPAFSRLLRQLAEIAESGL
Description: (§1) The degree of inhibition of a panel of kinases is determined using the in vitro HotSpot kinase assay (purified enzymes, ^33P-ATP, an appropriate substrate and 1 μM ATP).

EGFR = EGFR (Homo sapiens, UniProt P00533); test: Inhibition of a panel of kinases, in vitro HotSpot kinase assay: EGFR; details: D-compounds panel data; 1 μM ATP
Description: as §1

SRC = SRC (Homo sapiens, UniProt P12931); test: Inhibition of a panel of kinases, in vitro HotSpot kinase assay: SRC; details: D-compounds panel data; 1 μM ATP
Description: as §1

TEC = biological target: T3, TEC (Homo sapiens, UniProt P42680); test: Inhibition of a panel of kinases, in vitro HotSpot kinase assay: TEC; details: D-compounds panel data; 1 μM ATP
T3 sequence (P42680 1-631): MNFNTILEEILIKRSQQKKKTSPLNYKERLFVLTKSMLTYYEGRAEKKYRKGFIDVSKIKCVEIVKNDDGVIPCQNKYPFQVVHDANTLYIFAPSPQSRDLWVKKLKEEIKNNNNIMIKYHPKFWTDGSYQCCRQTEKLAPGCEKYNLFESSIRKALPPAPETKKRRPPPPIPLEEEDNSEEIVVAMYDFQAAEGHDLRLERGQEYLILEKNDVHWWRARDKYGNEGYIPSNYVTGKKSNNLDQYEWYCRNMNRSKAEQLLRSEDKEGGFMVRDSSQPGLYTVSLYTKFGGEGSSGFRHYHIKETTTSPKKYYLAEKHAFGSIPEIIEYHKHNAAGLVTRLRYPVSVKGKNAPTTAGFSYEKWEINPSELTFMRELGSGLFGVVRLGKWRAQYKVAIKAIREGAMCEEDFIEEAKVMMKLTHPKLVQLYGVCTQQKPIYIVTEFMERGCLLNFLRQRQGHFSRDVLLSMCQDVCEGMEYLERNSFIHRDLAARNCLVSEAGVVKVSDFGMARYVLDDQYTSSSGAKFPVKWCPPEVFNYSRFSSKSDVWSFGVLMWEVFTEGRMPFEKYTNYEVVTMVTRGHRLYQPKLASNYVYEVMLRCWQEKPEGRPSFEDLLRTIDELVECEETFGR
Description: as §1

Chain of EGFR (P00533 25-1210): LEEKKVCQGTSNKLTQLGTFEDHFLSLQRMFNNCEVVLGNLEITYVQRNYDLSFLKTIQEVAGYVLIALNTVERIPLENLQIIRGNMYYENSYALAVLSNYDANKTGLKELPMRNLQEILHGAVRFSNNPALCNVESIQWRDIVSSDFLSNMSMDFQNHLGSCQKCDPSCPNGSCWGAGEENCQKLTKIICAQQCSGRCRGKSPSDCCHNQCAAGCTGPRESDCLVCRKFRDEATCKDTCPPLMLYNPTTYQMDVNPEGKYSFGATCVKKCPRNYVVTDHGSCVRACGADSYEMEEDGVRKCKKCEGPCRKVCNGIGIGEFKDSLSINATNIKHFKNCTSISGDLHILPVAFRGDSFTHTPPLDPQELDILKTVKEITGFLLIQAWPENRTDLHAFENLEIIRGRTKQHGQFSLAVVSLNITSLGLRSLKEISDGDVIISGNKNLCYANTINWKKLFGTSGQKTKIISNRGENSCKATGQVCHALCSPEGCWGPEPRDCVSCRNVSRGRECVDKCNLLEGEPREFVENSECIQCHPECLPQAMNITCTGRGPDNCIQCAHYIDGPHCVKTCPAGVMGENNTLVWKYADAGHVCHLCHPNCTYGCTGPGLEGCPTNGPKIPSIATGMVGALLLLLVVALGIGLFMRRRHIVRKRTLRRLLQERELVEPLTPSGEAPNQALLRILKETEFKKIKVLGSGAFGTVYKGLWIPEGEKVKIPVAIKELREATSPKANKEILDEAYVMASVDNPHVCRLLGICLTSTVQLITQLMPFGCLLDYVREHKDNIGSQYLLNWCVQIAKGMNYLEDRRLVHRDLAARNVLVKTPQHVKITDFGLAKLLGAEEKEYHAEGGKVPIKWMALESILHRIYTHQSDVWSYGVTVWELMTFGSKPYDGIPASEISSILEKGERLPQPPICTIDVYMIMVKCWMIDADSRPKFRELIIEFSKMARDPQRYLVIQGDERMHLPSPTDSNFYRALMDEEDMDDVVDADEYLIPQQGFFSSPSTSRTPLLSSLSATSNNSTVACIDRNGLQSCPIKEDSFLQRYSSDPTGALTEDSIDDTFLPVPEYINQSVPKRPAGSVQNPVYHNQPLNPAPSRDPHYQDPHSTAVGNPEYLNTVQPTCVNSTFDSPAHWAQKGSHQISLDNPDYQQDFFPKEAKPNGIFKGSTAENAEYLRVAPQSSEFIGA
Chain of SRC (P12931 whole entry): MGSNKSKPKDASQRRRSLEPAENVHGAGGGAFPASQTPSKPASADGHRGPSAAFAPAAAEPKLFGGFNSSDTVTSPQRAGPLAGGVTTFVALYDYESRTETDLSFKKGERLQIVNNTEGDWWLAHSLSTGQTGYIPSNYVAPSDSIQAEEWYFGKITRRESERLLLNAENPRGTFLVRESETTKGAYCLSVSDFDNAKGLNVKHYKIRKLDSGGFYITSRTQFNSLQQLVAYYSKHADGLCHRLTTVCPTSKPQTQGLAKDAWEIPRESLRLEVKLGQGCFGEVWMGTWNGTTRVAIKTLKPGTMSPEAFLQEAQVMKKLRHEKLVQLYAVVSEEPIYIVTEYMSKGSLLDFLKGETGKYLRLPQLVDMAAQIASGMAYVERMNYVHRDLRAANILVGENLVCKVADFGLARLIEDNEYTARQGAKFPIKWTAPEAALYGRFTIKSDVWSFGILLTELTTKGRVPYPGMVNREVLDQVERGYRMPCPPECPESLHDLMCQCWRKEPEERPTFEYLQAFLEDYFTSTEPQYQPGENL

| Compound | IC50 (JAK3) [nM] | IC50 (ITK) [nM] | IC50 (EGFR) [nM] | IC50 (SRC) [nM] | IC50 (TEC) [nM] |
| --- | --- | --- | --- | --- | --- |
| C[C@@H]1[C@H](NC(=O)c2ccc(C3CC3)cn2)CCCN1c1cnc(C(N)=O)c(Nc2ccc(OC3CCN(C)CC3)cc2)n1 [Example D-297, 5-[(2R,3R)-3-(5-cyclopropylpyridine-2-amido)-2-methylpiperidin-1-yl]-3-({4-[(1-methylpiperidin-4-yl)oxy]phenyl}amino)pyrazine-2-carboxamide] | 100 to 1000 | 10 to 100 | 100 to 1000 | 10 to 100 | ≤ 10 |
| CCOCCOc1ccc(Nc2nc(N3CCC[C@@H](NC(=O)c4ccc(C5CC5)cc4)[C@H]3C)cnc2C(N)=O)cc1 [Example D-299, 5-[(2R,3R)-3-(4-cyclopropylbenzamido)-2-methylpiperidin-1-yl]-3-{[4-(2-ethoxyethoxy)phenyl]amino}pyrazine-2-carboxamide] | > 10000 | > 10000 | > 10000 | 1000 to 10000 | 10 to 100 |
| C[C@@H]1[C@H](NC(=O)c2ccc(C3CC3)cc2)CCCN1c1cnc(C(N)=O)c(NCC2=CCN(C)CC2)n1 [Example D-300, 5-[(2R,3R)-3-(4-cyclopropylbenzamido)-2-methylpiperidin-1-yl]-3-{[(1-methyl-1,2,3,6-tetrahydropyridin-4-yl)methyl]amino}pyrazine-2-carboxamide] | > 10000 | > 10000 | > 10000 | > 10000 | > 10000 |
| C[C@@H]1[C@H](NC(=O)c2ccc(C3CC3)cc2)CCCN1c1cnc(C(N)=O)c(Nc2ccc(C3CCN(C)CC3)cc2)n1 [Example D-301, 5-[(2R,3R)-3-(4-cyclopropylbenzamido)-2-methylpiperidin-1-yl]-3-{[4-(1-methylpiperidin-4-yl)phenyl]amino}pyrazine-2-carboxamide] | 1000 to 10000 | 100 to 1000 | 100 to 1000 | 100 to 1000 | 10 to 100 |
| C[C@@H]1[C@H](NC(=O)c2ccc(C3CC3)cc2)CCCN1c1cnc(C(N)=O)c(Nc2ccc3c(c2)CCOC3)n1 [Example D-303, 5-[(2R,3R)-3-(4-cyclopropylbenzamido)-2-methylpiperidin-1-yl]-3-[(3,4-dihydro-1H-2-benzopyran-6-yl)amino]pyrazine-2-carboxamide] | > 10000 | 1000 to 10000 | > 10000 | 1000 to 10000 | 10 to 100 |
| C[C@@H]1[C@H](NC(=O)c2ccc(C3CC3)nc2)CCCN1c1cnc(C(N)=O)c(Nc2ccc(N3CCC(F)(F)CC3)cc2)n1 [Example D-305, 5-[(2R,3R)-3-(6-cyclopropylpyridine-3-amido)-2-methylpiperidin-1-yl]-3-{[4-(4,4-difluoropiperidin-1-yl)phenyl]amino}pyrazine-2-carboxamide] | > 10000 | 100 to 1000 | 1000 to 10000 | 10 to 100 | 10 to 100 |
| C[C@@H]1[C@H](NC(=O)c2ccc(C3CC3)nc2)CCCN1c1cnc(C(N)=O)c(Nc2ccc(OC3CCOCC3)cc2)n1 [Example D-309, 5-[(2R,3R)-3-(6-cyclopropylpyridine-3-amido)-2-methylpiperidin-1-yl]-3-{[4-(oxan-4-yloxy)phenyl]amino}pyrazine-2-carboxamide] | 100 to 1000 | 100 to 1000 | 100 to 1000 | 10 to 100 | ≤ 10 |

Next, values leading:

| IC50 (JAK3) [nM] | IC50 (ITK) [nM] | IC50 (EGFR) [nM] | IC50 (SRC) [nM] | IC50 (TEC) [nM] | Compound |
| --- | --- | --- | --- | --- | --- |
| 100 to 1000 | 10 to 100 | 1000 to 10000 | 10 to 100 | ≤ 10 | C[C@@H]1[C@H](NC(=O)c2ccc(C(C)(C)O)cc2)CCCN1c1nnc(C(N)=O)c(Nc2cnn(C)c2)n1 [Example D-298, 3-[(2R,3R)-3-[4-(2-hydroxypropan-2-yl)benzamido]-2-methylpiperidin-1-yl]-5-[(1-methyl-1H-pyrazol-4-yl)amino]-1,2,4-triazine-6-carboxamide] |
| 100 to 1000 | 10 to 100 | 10 to 100 | 10 to 100 | ≤ 10 | C[C@@H]1[C@H](NC(=O)c2ccc(C(C)(C)O)cc2F)CCCN1c1cnc(C(N)=O)c(Nc2cnn(C)c2)n1 [Example D-302, 5-[(2R,3R)-3-[2-fluoro-4-(2-hydroxypropan-2-yl)benzamido]-2-methylpiperidin-1-yl]-3-[(1-methyl-1H-pyrazol-4-yl)amino]pyrazine-2-carboxamide] |
| 1000 to 10000 | 1000 to 10000 | 1000 to 10000 | 100 to 1000 | 10 to 100 | CCN(C)C(=O)N[C@@H]1CCCN(c2cnc(C(N)=O)c(Nc3cnn(C)c3)n2)[C@@H]1C [Example D-304, 5-[(2R,3R)-3-{[ethyl(methyl)carbamoyl]amino}-2-methylpiperidin-1-yl]-3-[(1-methyl-1H-pyrazol-4-yl)amino]pyrazine-2-carboxamide] |
| 1000 to 10000 | 100 to 1000 | 1000 to 10000 | 100 to 1000 | 10 to 100 | C[C@@H]1[C@H](NC(=O)N(C)C)CCCN1c1cnc(C(N)=O)c(Nc2ccc(N3CCC(F)(F)CC3)cc2)n1 [Example D-306, 3-{[4-(4,4-difluoropiperidin-1-yl)phenyl]amino}-5-[(2R,3R)-3-[(dimethylcarbamoyl)amino]-2-methylpiperidin-1-yl]pyrazine-2-carboxamide] |
| > 10000 | 1000 to 10000 | > 10000 | 100 to 1000 | 10 to 100 | C[C@@H]1[C@H](NC(=O)c2ccc(C3CC3)cc2)CCCN1c1cnc(C(N)=O)c(Nc2cnn(C3CCC(F)(F)CC3)c2)n1 [Example D-307, 5-[(2R,3R)-3-(4-cyclopropylbenzamido)-2-methylpiperidin-1-yl]-3-{[1-(4,4-difluorocyclohexyl)-1H-pyrazol-4-yl]amino}pyrazine-2-carboxamide] |
| 1000 to 10000 | 10 to 100 | 1000 to 10000 | 10 to 100 | ≤ 10 | C[C@@H]1[C@H](NC(=O)c2ccc(C(C)(C)O)cc2F)CCCN1c1nnc(C(N)=O)c(Nc2cnn(C)c2)n1 [Example D-308, 3-[(2R,3R)-3-[2-fluoro-4-(2-hydroxypropan-2-yl)benzamido]-2-methylpiperidin-1-yl]-5-[(1-methyl-1H-pyrazol-4-yl)amino]-1,2,4-triazine-6-carboxamide] |

Reference: patent US20210070748A1, “INHIBITORS OF BRUTONS TYROSINE KINASE” (Pharmacyclics LLC, priority 2015, published 2021)
